Test results from patent US20260097037A1, “FUSED RING COMPOUND HAVING GLP-1 RECEPTOR AGONIST EFFECT” (Shionogi & Co., Ltd., priority 2022, published 2026).

Molecular target: T1, Human GLP-1 receptor stably expressing cells (hGLP-1R/CHO-K1 cells) (Homo sapiens, UniProt P43220)
T1 construct: expressed in transfected cells
Test: Measurement of GLP-1 receptor agonist activity (cAMP assay)
Format: cell-based
Conditions: for Emax: CHO-K1, maximum effect, cAMP with 2 nM human GLP-1 (7-36) = 100%, DMSO only = 0%, read-out: Emax; for EC50: increase in cAMP concentration in hGLP-1R/CHO-K1 cells, 37° C. 1 hour
Description: Test Example 1: Measurement of GLP-1 Receptor Agonist Activity
Human GLP-1 receptor stably expressing cells (hGLP-1R/CHO-K1 cells) are cultured in an a-MEM medium (Sigma) containing 10% FBS (Hyclone), 2% GlutaMAX (Gibco), 1% G418 (Nacalai Tesque), and 1% Penicillin-Streptomycin Mixed Solution (Sigma) at 37° C. under 5% CO2 conditions, and recovered by treating a 10 fold diluted 5.0 g/1-trypsin/5.3 mmol/1-EDTA solution (Nacalai Tesque) and cryopreserved.
A DMSO solution containing the compound of the present invention or human GLP-1 (7-36) (Phoenix Pharmaceuticals) is dispensed into a 384-well microplate (Greiner) at 62.5 nL/well, and in addition, 400 μM Forskolin (Nacalai Tesque) is dispensed therein at 7.5 nL/well. Subsequently, the frozen GLP-1 R/CHO-K1 cells are thawed in a thermostatic bath at 37° C., suspended in HBSS buffer (GIBCO) containing 0.1% BSA (Sigma), 20 mM HEPES, 0.1 mM IBMX (Sigma), and 0.2 mM RO20-1724 (Calbiochem) at 2×10^4 cells/mL, and the cell suspension is added at 6 μL/well. The solution was incubated at 37° C. for 1 hour and intracellular cAMP concentration is measured using cAMP Gs dynamic kit (Cisbio) according to the protocol attached to the product. Specifically, a cAMP-d2/Anti-cAMP-Cryptate (1/1) mixture solution is added in a total amount of 6 μL/well, and is incubated at room temperature for 1 hour, and then, time-resolved fluorescence is measured using PHERAstar (BMG Labtech).
Assuming that the cAMP concentration when human GLP-1 (7-36) is dispensed to a final concentration of 2 nM is 100% and the cAMP concentration when only DMSO is dispensed is 0%, the 50% effective concentration (EC50) and the maximum effect (Emax) of the compound of the present invention are calculated using an increase in the cAMP concentration as an index, using TIBCO Spotfire (TIBCO Software). The dilution concentration or the dilution solvent are changed as necessary.
The compounds of the present invention were tested essentially as described above.

T1 sequence (P43220 24-463): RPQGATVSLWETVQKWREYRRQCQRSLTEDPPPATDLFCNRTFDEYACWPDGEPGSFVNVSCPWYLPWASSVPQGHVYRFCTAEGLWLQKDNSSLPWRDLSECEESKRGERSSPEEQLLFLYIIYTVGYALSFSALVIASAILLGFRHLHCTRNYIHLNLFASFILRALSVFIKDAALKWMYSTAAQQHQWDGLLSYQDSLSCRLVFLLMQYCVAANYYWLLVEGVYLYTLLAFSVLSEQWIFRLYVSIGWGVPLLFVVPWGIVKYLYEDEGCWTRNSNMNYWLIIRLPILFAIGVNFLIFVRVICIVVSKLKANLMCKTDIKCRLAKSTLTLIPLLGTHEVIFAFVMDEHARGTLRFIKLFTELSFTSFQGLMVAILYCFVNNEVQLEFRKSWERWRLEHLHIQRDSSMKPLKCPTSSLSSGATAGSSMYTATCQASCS

C[C@H]1c2nc(OCc3ccc(C#N)cc3F)c(C(F)F)cc2CCN1Cc1nc2ccc(C(=O)O)c(F)c2n1C[C@@H]1CCO1 [Compound I-127]
Emax: 121%
EC50: 0.104 nM

COc1cc(C(=O)O)cc2c1nc(CN1CCc3cc(C(F)F)c(OCc4ccc(Cl)cc4Cl)nc3[C@@H]1C)n2C[C@@H]1CCO1 [Compound I-132]
Emax: 127%
EC50: 0.0162 nM

C[C@H]1c2nc(OCc3ccc(Cl)cc3F)c(C(F)F)cc2CCN1Cc1nc2ccc(C(=O)O)nc2n1C[C@@H]1CCO1 [Compound I-097]
Emax: 109%
EC50: 0.343 nM

C[C@H]1c2nc(OCc3ccc(OC(F)F)cc3F)c(C#N)cc2CCN1Cc1nc2c(Cl)cc(C(=O)O)cc2n1C[C@@H]1CCO1 [Compound I-186]
Emax: 123%
EC50: 0.466 nM

C[C@H]1c2nc(OCc3ccc(Cl)cc3F)c(C#N)cc2CCN1Cc1nc2c(F)cc(C(=O)O)cc2n1C[C@@H]1CCO1 [Compound I-138]
Emax: 128%
EC50: 0.119 nM

C[C@H]1c2nc(OCc3c(F)cc(Cl)cc3F)c(C(F)F)cc2CCN1Cc1nc2ccc(C(=O)O)nc2n1C[C@@H]1CCO1 [Compound I-101]
Emax: 108%
EC50: 0.469 nM

COc1cc(C(=O)O)cc2c1nc(CN1CCc3cc(C(F)F)c(OCc4ccc(Cl)cc4)nc3[C@@H]1C)n2C[C@@H]1CCO1 [Compound I-129]
Emax: 131%
EC50: 0.0303 nM

C[C@H]1c2nc(OCc3ccc(Cl)cn3)c(C(F)F)cc2CCN1Cc1nc2ccc(C(=O)O)c(F)c2n1C[C@@H]1CCO1 [Compound I-123]
Emax: 127%
EC50: 0.275 nM

C[C@H]1c2nc(OCc3ccc(Cl)c4ccoc34)c(C#N)cc2CCN1Cc1nc2c(Cl)cc(C(=O)O)cc2n1C[C@@H]1CCO1 [Compound I-180]
Emax: 111%
EC50: 0.28 nM

COc1cc(C(=O)O)cc2c1nc(CN1CCc3cc(C#N)c(OCc4ccc(Cl)cc4)nc3[C@@H]1C)n2C[C@@H]1CCO1 [Compound I-144]
Emax: 124%
EC50: 0.0625 nM

C[C@H]1c2cc(OCc3ccc(Cl)cc3)c(C(F)F)cc2CCN1Cc1nc2ccc(C(=O)O)cc2n1C[C@@H]1CCO1 [Compound I-004]
Emax: 105%
EC50: 2.88 nM

C[C@H]1c2nc(OCc3ccc(Cl)cc3F)c(C(F)(F)F)cc2CCN1Cc1nc2c(-c3cnn(C)c3)cc(C(=O)O)cc2n1C[C@@H]1CCO1 [Compound I-178]
Emax: 99.7%
EC50: 12.4 nM

C[C@H]1c2nc(OCc3c(F)cc(Cl)cc3F)c(Cl)cc2CCN1Cc1nc2ccc(C(=O)O)nc2n1C[C@@H]1CCO1 [Compound I-033]
Emax: 111%
EC50: 0.437 nM

O=C(O)c1ccc2nc(CC3CCc4cc(C(F)(F)F)c(OCc5ccc(Cl)cc5F)cc4C3)n(C[C@@H]3CCO3)c2c1 (some centres unmarked) [Compound I-077]
Emax: 92.3%
EC50: 7.35 nM

C[C@H]1c2nc(OCc3nc4ccccc4s3)c(C(F)(F)F)cc2CCN1Cc1nc2ccc(C(=O)O)cc2n1C[C@@H]1CCO1 [Compound I-050]
Emax: 97%
EC50: 0.638 nM

C[C@H]1c2nc(NCc3cc(F)c(Cl)cc3F)c(C(F)(F)F)cc2CCN1Cc1nc2c(Cl)cc(C(=O)O)cc2n1C[C@@H]1CCO1 [Compound I-176]
Emax: 112%
EC50: 0.0693 nM

C[C@H]1c2c(cc(C(F)(F)F)c3c2O[C@@](C)(c2ccc(Cl)cn2)O3)CCN1Cc1nc2ccc(C(=O)O)cc2n1C[C@@H]1CCO1 [Compound I-027]
Emax: 119%
EC50: 0.701 nM

COc1cc(C(=O)O)cc2c1nc(CN1CCc3cc(Cl)c(OCc4ccc(Cl)cc4)nc3[C@@H]1C)n2C[C@@H]1CCO1 [Compound I-066]
Emax: 106%
EC50: 0.0375 nM

C[C@H]1c2nc(OCc3ccc(Cl)cc3)c(Cl)cc2CCN1Cc1nc2ccc(C(=O)O)cc2n1C[C@@H]1CCO1 [Compound I-017]
Emax: 136%
EC50: 0.17 nM

C[C@H]1c2nc(OCc3c(F)cc(Cl)cc3F)c(Cl)cc2CCN1Cc1nc2c(F)cc(C(=O)O)cc2n1C[C@@H]1CCO1 [Compound I-088]
Emax: 103%
EC50: 0.0865 nM

COc1cc(C(=O)O)cc2c1nc(CN1CCc3cc(C(F)(F)F)c(NCc4ccc(Cl)cc4F)nc3[C@@H]1C)n2C[C@@H]1CCO1 [Compound I-150]
Emax: 105%
EC50: 0.0391 nM

C[C@H]1c2nc(CCc3ccc(Cl)cc3)c(C(F)(F)F)cc2CCN1Cc1nc2ccc(C(=O)O)cc2n1C[C@@H]1CCO1 [Compound I-095]
Emax: 102%
EC50: 0.716 nM

C[C@H]1c2nc(OCc3ccc(Cl)cc3F)c(C#N)cc2CCN1Cc1nc2ccc(C(=O)O)c(F)c2n1C[C@@H]1CCO1 [Compound I-137]
Emax: 136%
EC50: 0.224 nM

C[C@H]1c2nc(OCc3cc(F)c(Cl)cc3F)c(C(F)F)cc2CCN1Cc1nc2c(F)cc(C(=O)O)cc2n1C[C@@H]1CCO1 [Compound I-114]
Emax: 113%
EC50: 0.0604 nM

C[C@H]1c2nc(OCc3ccc(Cl)cc3Cl)c(C(F)F)cc2CCN1Cc1nc2ccc(C(=O)O)nc2n1C[C@@H]1CCO1 [Compound I-100]
Emax: 115%
EC50: 0.58 nM

COc1cc(C(=O)O)cc2c1nc(CN1CCc3cc(C(F)(F)F)c(NCc4c(F)cc(Cl)cc4F)nc3[C@@H]1C)n2C[C@@H]1CCO1 [Compound I-171]
Emax: 124%
EC50: 0.0152 nM

C[C@H]1c2nc(OCc3ccc(C#N)cc3F)c(C(F)F)cc2CCN1Cc1nc2ccc(C(=O)O)nc2n1C[C@@H]1CCO1 [Compound I-103]
Emax: 97%
EC50: 0.558 nM

C[C@H]1c2nc(OCc3ccc(F)cc3Cl)c(C#N)cc2CCN1Cc1nc2c(Cl)cc(C(=O)O)cc2n1C[C@@H]1CCO1 [Compound I-182]
Emax: 119%
EC50: 0.173 nM

C[C@H]1c2nc(NCc3c(F)cc(Cl)cc3F)c(C(F)(F)F)cc2CCN1Cc1nc2c(Cl)cc(C(=O)O)cc2n1C[C@@H]1CCO1 [Compound I-172]
Emax: 106%
EC50: 0.0353 nM

C[C@H]1c2c(cc(C(F)(F)F)c3c2OC(C)(c2ccc(Cl)cc2F)O3)CCN1Cc1nc2ccc(C(=O)O)cc2n1C[C@@H]1CCO1 (mixture of isomers) [Compound I-015]
Emax: 93.3%
EC50: 2.33 nM

C[C@H]1c2nc(OCc3ncc(Cl)s3)c(C(F)(F)F)cc2CCN1Cc1nc2ccc(C(=O)O)cc2n1C[C@@H]1CCO1 [Compound I-048]
Emax: 93.7%
EC50: 3.31 nM

COc1cc(C(=O)O)cc2c1nc(CN1CCc3cc(C(F)(F)F)c(NCc4ccc(Cl)cc4)nc3[C@@H]1C)n2C[C@@H]1CCO1 [Compound I-167]
Emax: 122%
EC50: 0.052 nM

COc1cc(C(=O)O)cc2c1nc(CN1CCc3cc(C(F)F)c(OCc4c(F)cc(Cl)cc4F)nc3[C@@H]1C)n2C[C@@H]1CCO1 [Compound I-134]
Emax: 128%
EC50: 0.0104 nM

C[C@H]1c2nc(OCc3ccc(OC(F)F)cc3F)c(C(F)F)cc2CCN1Cc1nc2ccc(C(=O)O)cc2n1C[C@@H]1CCO1 [Compound I-059]
Emax: 104%
EC50: 1.28 nM

C[C@H]1c2nc(NCc3cc(F)c(Cl)cc3F)c(C(F)(F)F)cc2CCN1Cc1nc2c(F)cc(C(=O)O)cc2n1C[C@@H]1CCO1 [Compound I-175]
Emax: 107%
EC50: 0.0831 nM

C[C@H]1c2nc(OCc3ccc(Cl)cc3Cl)c(C(F)F)cc2CCN1Cc1nc2c(F)cc(C(=O)O)cc2n1C[C@@H]1CCO1 [Compound I-111]
Emax: 110%
EC50: 0.0683 nM

C[C@H]1c2nc(OCc3c(F)cc(F)cc3F)c(C(F)F)cc2CCN1Cc1nc2ccc(C(=O)O)cc2n1C[C@@H]1CCO1 [Compound I-061]
Emax: 101%
EC50: 0.295 nM

C[C@H]1c2nc(OCc3c(F)cc(C#N)cc3F)c(C(F)(F)F)cc2CCN1Cc1nc2ccc(C(=O)O)cc2n1C[C@@H]1CCO1 [Compound I-107]
Emax: 111%
EC50: 0.106 nM

C[C@@H]1c2nc(OCc3ccc(Cl)cc3F)ncc2CCN1Cc1nc2ccc(C(=O)O)cc2n1C[C@@H]1CCO1 [Compound I-079]
Emax: 75.7%
EC50: 886 nM

C[C@H]1c2nc(NCc3ccc(C#N)cc3F)c(C(F)(F)F)cc2CCN1Cc1nc2c(Cl)cc(C(=O)O)cc2n1C[C@@H]1CCO1 [Compound I-194]
Emax: 103%
EC50: 0.137 nM

COc1cc(C(=O)O)cc2c1nc(CN1CCc3cc(Cl)c(OCc4ccccc4Cl)nc3[C@@H]1C)n2C[C@@H]1CCO1 [Compound I-068]
Emax: 112%
EC50: 0.194 nM

C[C@H]1c2nc(OCc3ccc(Cl)cc3Cl)c(Cl)cc2CCN1Cc1nc2ccc(C(=O)O)c(F)c2n1C[C@@H]1CCO1 [Compound I-038]
Emax: 126%
EC50: 0.0595 nM

COc1cc(C(=O)O)cc2c1nc(CN1CCc3cc(C(F)(F)F)c4c(c3[C@@H]1C)O[C@@](C)(c1ccc(Cl)cn1)O4)n2C[C@@H]1CCO1 [Compound I-159]
Emax: 99.3%
EC50: 0.155 nM
